Results on 35 substances are retold here after US7125679B2, “Methods to screen peptide libraries using minicell display” (Children's Medical Center Corporation, priority 2001, dated 2006).

Assay [1] deals with T1, β3 (Homo sapiens, UniProt P05106).
T1 sequence (P05106 27-788): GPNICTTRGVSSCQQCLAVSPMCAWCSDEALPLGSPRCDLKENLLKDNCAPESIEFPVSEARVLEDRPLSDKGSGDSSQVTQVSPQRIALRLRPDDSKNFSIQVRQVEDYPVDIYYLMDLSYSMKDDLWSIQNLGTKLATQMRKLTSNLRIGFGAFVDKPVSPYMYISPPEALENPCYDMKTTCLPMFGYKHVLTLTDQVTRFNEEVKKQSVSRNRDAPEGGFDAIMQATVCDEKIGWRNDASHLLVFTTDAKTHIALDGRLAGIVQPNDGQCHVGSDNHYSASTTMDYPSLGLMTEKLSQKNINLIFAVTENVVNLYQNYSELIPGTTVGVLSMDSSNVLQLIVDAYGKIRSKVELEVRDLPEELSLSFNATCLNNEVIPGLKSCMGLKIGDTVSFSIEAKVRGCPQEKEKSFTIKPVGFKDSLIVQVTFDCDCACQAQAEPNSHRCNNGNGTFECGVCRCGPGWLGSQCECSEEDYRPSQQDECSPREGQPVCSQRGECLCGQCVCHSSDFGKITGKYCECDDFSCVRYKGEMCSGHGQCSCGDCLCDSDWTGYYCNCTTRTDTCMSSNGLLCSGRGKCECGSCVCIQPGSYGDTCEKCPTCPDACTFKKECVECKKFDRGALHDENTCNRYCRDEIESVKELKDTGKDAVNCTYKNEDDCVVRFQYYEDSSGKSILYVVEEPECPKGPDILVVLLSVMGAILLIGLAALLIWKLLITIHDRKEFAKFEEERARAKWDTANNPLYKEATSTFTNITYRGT
The assay can be described thus: β3 attachment. It is filed as cell-based.

For assay [2], the system named is tumor cells. Kind of assay: Apoptosis of tumor cells. The assay is classed as cell-based. An excerpt: Many cells may undergo programmed cell death which is a genetically mediated form of self destruction. This phenomenon is commonly referred to in the art as apoptosis. Frequently, apoptotic cells may be recognized by changes in their biochemical, morphological and molecular features. Morphological changes include, but are not limited to, cell shape change, cell shrinkage, cell detachment, apoptotic bodies, nuclear fragmentation, nuclear envelope changes and loss of cell surface structures. Biochemical changes may include proteolysis, protein cross linking, DNA denaturation, cell dehydration, intranucleosomal cleavage and a rise in free calcium ions. Such characteristics are easily identifiable by methods well established in the art. Peptides isolated by the disclosed mini-cell display method are tested for their effects on such physiological and biochemical processes.

Assay [3] has as its system alphavbetax. The assay can be described thus: Cell attachment, alphavbetax specific. The assay is classed as cell-based.
The target in assay [4] is T2, alpha4 integrin (Homo sapiens, UniProt P13612).
T2 sequence (P13612 34-1032): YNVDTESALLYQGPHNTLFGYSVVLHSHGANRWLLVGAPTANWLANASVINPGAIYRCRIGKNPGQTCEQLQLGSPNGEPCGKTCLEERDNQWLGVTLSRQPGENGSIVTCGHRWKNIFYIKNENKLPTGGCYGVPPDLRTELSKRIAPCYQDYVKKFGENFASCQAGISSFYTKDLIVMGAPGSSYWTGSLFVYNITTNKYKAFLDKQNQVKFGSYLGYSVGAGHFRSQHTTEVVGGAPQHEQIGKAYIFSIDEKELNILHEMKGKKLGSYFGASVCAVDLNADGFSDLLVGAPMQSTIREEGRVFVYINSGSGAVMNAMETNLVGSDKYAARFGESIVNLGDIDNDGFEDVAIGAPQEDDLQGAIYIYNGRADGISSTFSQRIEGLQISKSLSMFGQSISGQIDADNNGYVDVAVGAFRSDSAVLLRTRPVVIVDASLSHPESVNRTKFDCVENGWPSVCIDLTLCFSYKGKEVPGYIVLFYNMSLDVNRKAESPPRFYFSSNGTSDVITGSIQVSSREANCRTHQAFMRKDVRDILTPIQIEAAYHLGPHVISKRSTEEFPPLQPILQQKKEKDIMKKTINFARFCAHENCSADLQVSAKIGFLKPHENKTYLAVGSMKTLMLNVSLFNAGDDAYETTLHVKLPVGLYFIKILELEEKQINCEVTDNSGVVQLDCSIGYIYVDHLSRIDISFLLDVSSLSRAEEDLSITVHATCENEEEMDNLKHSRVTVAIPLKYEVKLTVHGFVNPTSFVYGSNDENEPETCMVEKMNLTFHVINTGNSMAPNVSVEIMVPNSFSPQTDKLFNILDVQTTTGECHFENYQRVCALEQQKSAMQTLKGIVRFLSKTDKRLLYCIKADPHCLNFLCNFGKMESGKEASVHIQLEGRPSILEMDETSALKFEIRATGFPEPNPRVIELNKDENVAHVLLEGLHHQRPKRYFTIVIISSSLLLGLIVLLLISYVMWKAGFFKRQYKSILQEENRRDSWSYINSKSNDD
Kind of assay: alpha4 integrin binding.

Assay [5] can be described thus: Heparin binding.
Assay [6] has as its system cell-cell adhesion. Kind of assay: Cell-cell adhesion. The assay is classed as cell-based.
For assay [7], the system named is tumor cells. The assay can be described thus: Homotypic aggregation of tumor cells. It is filed as cell-based.
In assay [8] the test system is angiogenesis. The assay can be described thus: Anti-angiogenic activity.
For assay [9], the system named is Endothelial cell. Kind of assay: Endothelial cell attachment. The assay is classed as cell-based.
Assay [10] deals with melanoma cell. The assay can be described thus: Melanoma cell attachment. It is filed as cell-based.
For assay [11], the system named is β integrin. Kind of assay: β integrin binding.
Assay [12] has as its system fibroblast. Kind of assay: Fibroblast attachment. The assay is classed as cell-based.
Assay [13] relates to collagenase. The assay can be described thus: Collagenase induction. It is filed as cell-based.
For assay [14], the system named is neutrophils, endothelium, fibrosarcomas melanoma. The assay can be described thus: Attachment of neutrophils, endothelium, fibrosarcomas, melanoma. It is filed as cell-based.
The target of assay [15] is Fibronectin receptor (Homo sapiens, UniProt P05556+P08648). Kind of assay: Fibronectin receptor binding.
For assay [16], the system named is cell entry of peptides. Kind of assay: Cell entry of peptides. The assay is classed as cell-based.

Sequence of Fibronectin receptor (P08648 42-894 limits assumed): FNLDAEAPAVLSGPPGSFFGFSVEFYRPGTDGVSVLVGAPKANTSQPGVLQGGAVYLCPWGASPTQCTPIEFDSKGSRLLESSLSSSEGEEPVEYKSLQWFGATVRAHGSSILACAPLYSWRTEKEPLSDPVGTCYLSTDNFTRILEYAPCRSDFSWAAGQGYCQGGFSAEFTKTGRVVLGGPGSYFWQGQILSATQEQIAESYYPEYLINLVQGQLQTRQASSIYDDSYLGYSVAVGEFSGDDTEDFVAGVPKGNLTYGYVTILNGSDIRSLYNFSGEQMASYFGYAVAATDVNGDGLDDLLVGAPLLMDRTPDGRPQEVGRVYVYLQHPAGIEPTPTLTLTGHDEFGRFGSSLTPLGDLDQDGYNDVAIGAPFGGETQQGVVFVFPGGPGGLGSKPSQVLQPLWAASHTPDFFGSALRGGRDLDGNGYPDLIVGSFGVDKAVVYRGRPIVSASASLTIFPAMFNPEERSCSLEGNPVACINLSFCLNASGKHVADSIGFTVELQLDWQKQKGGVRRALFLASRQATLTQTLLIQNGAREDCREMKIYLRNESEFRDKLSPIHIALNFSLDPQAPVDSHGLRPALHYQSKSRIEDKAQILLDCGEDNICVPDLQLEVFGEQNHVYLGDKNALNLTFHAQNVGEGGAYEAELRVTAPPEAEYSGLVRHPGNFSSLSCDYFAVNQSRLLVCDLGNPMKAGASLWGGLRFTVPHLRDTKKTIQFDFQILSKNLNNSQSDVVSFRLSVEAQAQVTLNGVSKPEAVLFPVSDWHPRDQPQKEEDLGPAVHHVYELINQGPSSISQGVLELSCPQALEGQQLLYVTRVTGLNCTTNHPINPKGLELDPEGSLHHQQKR
Sequence of Fibronectin receptor (P08648 895-1049 limits assumed): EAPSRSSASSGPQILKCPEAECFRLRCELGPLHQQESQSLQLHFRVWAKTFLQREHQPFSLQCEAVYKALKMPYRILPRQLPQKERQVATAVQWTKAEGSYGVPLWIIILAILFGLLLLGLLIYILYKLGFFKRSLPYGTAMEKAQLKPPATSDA
Sequence of Fibronectin receptor (P05556 21-798): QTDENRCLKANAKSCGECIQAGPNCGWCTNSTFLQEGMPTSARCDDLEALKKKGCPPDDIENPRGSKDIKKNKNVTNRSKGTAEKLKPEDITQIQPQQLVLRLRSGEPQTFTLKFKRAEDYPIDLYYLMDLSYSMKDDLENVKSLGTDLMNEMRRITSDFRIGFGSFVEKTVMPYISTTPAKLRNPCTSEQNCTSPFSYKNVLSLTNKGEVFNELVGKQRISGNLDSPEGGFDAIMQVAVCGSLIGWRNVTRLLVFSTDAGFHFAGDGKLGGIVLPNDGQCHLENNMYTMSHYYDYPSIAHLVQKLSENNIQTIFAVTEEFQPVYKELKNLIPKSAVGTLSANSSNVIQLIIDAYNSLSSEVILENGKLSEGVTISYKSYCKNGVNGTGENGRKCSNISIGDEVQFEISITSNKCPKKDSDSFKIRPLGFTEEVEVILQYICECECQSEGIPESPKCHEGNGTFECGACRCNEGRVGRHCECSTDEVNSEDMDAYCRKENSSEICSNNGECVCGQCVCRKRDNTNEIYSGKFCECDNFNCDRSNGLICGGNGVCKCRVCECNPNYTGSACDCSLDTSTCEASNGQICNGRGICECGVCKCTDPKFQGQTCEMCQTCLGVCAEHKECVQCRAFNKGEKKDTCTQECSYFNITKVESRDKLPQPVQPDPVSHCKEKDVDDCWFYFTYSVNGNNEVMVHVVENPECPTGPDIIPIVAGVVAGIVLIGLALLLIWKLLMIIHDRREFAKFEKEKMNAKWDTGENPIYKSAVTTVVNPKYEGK

With HDRKEVAKFEAERSKA (beta 3 attachment.), the “FUNCTIONAL ACTIVITY: β3 attachment” value in [1] is recorded as “β3 attachment”.

HDRKEFAKFEEEERARA (beta 3 attachment.): the “FUNCTIONAL ACTIVITY: β3 attachment” value in [1] was “β3 attachment”. As for “DGGRGDSLGWYRRGRGGARRSKAKKAAAKNNQKSEPLIGRKKT (Apoptotic to tumor cells.)”, the “FUNCTIONAL ACTIVITY: Apoptotic to tumor cells” value in assay [2] is listed as “Apoptotic to tumor cells”.

For the substance “TPFIPTESANDGRGDSVAW (Cell attachment/ alpha v beta x specific.)”, the “FUNCTIONAL ACTIVITY: Cell attachment/alphavbetax specific” value in assay [3] is reported as “Cell attachment/a1phavbetax”. For “LDSAS: bioactive peptide isolated by minicell display (Inhibits alpha 4 integrin binding.)”, the “FUNCTIONAL ACTIVITY: Inhibits alpha4 integrin binding” value in assay [4] was “Inhibits alpha4 integrin”. As to “DSVAYGLKSK (Inhibitor of heparin binding.)”, the “FUNCTIONAL ACTIVITY: Inhibits heparin binding” value in [5] is “Inhibits heparin binding”.

HDRREFAKFQSERSRA (beta 3 attachment.): the “FUNCTIONAL ACTIVITY: β3 attachment” value in assay [1] is given as “β3 attachment”. With “KRSR: bioactive peptide isolated by minicell display (Apoptotic to tumor cells.)”, in assay [2], the “FUNCTIONAL ACTIVITY: Apoptotic to tumor cells” value was “Apoptotic to tumor cells”.

For KKAKKSRRS (Anti-adhesion (cell-cell).), the “FUNCTIONAL ACTIVITY: Anti-adhesion (cell-cell)” value in assay [6] was “Anti-adhesion (cell-cell)”. The same measure, in the same setting: as for KKGKKSKRS (Anti-adhesion (cell-cell).), the entry is “Anti-adhesion (cell-cell)”. Turning to “HGRFILPWWYAFSPS (Inhibits homotypic aggregation of tumor cells.)”, the “FUNCTIONAL ACTIVITY: Inhibit homotypic aggregation of tumor cells” value in assay [7] is given as “Inhibit homotypic aggregation”. For “RRSRSSTGKKQKSSQSRKTA (Anti-adhesion (cell-cell))”, the “FUNCTIONAL ACTIVITY: Anti-adhesion (cell-cell)” value in assay [6] is given as “Anti-adhesion (cell-cell)”.

On to QVGLKPLV (Anti-angiogenic.), for which, in assay [8], the “FUNCTIONAL ACTIVITY: Anti-angiogenic” value was “Anti-angiogenic”.

Turning to “QSWKKQGSPSSPQRRSKGGRKP (beta 3 attachment.)”, the “FUNCTIONAL ACTIVITY: β3 attachment” value in assay [1] is reported as “β3 attachment”. For “SDQDNNGKGSHES (Endothelial cell attachment.)”, the “FUNCTIONAL ACTIVITY: Endothelial cell attachment” value in [9] is “Endothelial cell attachment”. As for “DSVVYGLRSK (Inhibitor of heparin binding.)”, the “FUNCTIONAL ACTIVITY: Inhibits heparin binding” value in assay [5] is recorded as “Inhibits heparin binding”. As for “LDSPPAALS (Inhibits alpha 4 integrin binding.)”, in assay [4], the “FUNCTIONAL ACTIVITY: Inhibits alpha4 integrin binding” value is listed as “Inhibits alpha4 integrin”. On the same count and under the same terms, as for “SDV: bioactive peptide isolated by minicell display (Inhibits alpha 4 integrin binding.)”, the entry is “Inhibits alpha4 integrin”. For DKKELAKFQAERSAAS (beta 3 attachment.), the “FUNCTIONAL ACTIVITY: β3 attachment” value in [1] is recorded as “β3 attachment”. With “QESPSGTDLLVAGSSP (Inhibits alpha 4 integrin binding.)”, in assay [4], the “FUNCTIONAL ACTIVITY: Inhibits alpha4 integrin binding” value was “Inhibits alpha4 integrin”. Take “HKFVHWKKPVLPSQNNQ (Inhibits melanoma cell attachment.)”: the “FUNCTIONAL ACTIVITY: Inhibits melanoma cell attachment” value in [10] was “Inhibits melanoma cell”. As to “AADVESPS (Inhibits alpha 4 integrin binding.)”, the “FUNCTIONAL ACTIVITY: Inhibits alpha4 integrin binding” value in assay [4] is “Inhibits alpha4 integrin”.

As for “TPVVPTVDTYDGRGDSLAY (beta integrin binding.)”, the “FUNCTIONAL ACTIVITY: β integrin binding” value in assay [11] is “β integrin binding”. Turning to “PNGRGESLAY (Inhibits fibroblast attachment, inhibits collagenase induction.)”, the “FUNCTIONAL ACTIVITY: Inhibits fibroblast attachment” value in assay [12] is “Inhibits fibroblast attachment,”. Further, in [13], the “FUNCTIONAL ACTIVITY: inhibits collagenase induction” value is reported as “inhibits collagenase induction”. On to “WTGGDDSGSPSSPS (Inhibits alpha 4 integrin binding.)”, for which, in assay [4], the “FUNCTIONAL ACTIVITY: Inhibits alpha4 integrin binding” value is “Inhibits alpha4 integrin”. “EPEESDVGGAADYP (Inhibits alpha 4 integrin binding.)”: the “FUNCTIONAL ACTIVITY: Inhibits alpha4 integrin binding” value in assay [4] is given as “Inhibits alpha4 integrin”. Consider “DRYLKFRPV (Inhibits melanoma cell attachment.)”, for which, in assay [10], the “FUNCTIONAL ACTIVITY: Inhibits melanoma cell attachment” value is given as “Inhibits melanoma cell”. As to “KGMNYTVR (Inhibits neutrophils, endothelium, fibro- sarcomas, melanoma attachment.)”, the “FUNCTIONAL ACTIVITY: Inhibits, neutrophils, endothelium, fibrosarcomas melanoma attachment” value in assay [14] is given as “Inhibits, neutrophils,”. On to “GRGDNPS (Fibronectin receptor binding collagenase induction.)”, for which the “FUNCTIONAL ACTIVITY: Fibronectin receptor binding” value in assay [15] is listed as “Fibronectin receptor binding”. The “FUNCTIONAL ACTIVITY: collagenase induction” value in [13] is “collagenase induction”. Take “LVPSSKGRGDYLAQSQP (Fibronectin receptor binding collagenase induction.)”: in [15], the “FUNCTIONAL ACTIVITY: Fibronectin receptor binding” value is listed as “Fibronectin receptor binding”. In assay [13], the “FUNCTIONAL ACTIVITY: collagenase induction” value was “collagenase induction”.

Take ATWLPPR (Anti-angiogenic.): the “FUNCTIONAL ACTIVITY: Anti-angiogenic” value in assay [8] is “Anti-angiogenic”. As for “DSVAYGLKSRSK (Inhibitor of heparin binding.)”, in assay [5], the “FUNCTIONAL ACTIVITY: Inhibits heparin binding” value is reported as “Inhibits heparin binding”. Regarding TPTVRGAAGSGNQN (Anti-angiogenic), the “FUNCTIONAL ACTIVITY: Anti-angiogenic” value in assay [8] is recorded as “Anti-angiogenic”. As for “SDQDQDGDGHQDS (Endothelial cell attachment.)”, the “FUNCTIONAL ACTIVITY: Endothelial cell attachment” value in assay [9] was “Endothelial cell attachment”. With “CVVVLVL (Promotes cell entry of peptides.)”, in assay [16], the “FUNCTIONAL ACTIVITY: Promotes cell entry of peptides” value is given as “Promotes cell entry of peptides”.
